From ChEMBL document CHEMBL1201862, “PubChem BioAssay data set” (2004)
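Interpolation was linear, between the two tested concentrations surrounding the appropriate level; five concentrations were tested over 48 hours in 96-well plates. GI50 = concentration required for 50% inhibition of growth.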 Active and inactive are the calls of the source. Cut-off read from the data, not from the text of the source: active = GI50 up to about 1.1 µM and inactive = higher.

How the values were obtained:
Assay in all cases: NCI tumour cell line growth inhibition, 48 h
SF-268 = test system: SF-268
SF-295 = test system: SF-295
NCI-H522 = test system: NCI-H522
NCI-H226 = test system: NCI-H226
DLD-1 = test system: DLD-1
SNB-75 = test system: SNB-75
HCT-15 = test system: HCT-15
RXF 393 = test system: RXF 393
SNB-19 = test system: SNB-19
TK-10 = test system: TK-10
COLO 205 = test system: COLO 205
SK-MEL-5 = test system: SK-MEL-5
MOLT-4 = test system: MOLT-4
HCC 2998 = test system: HCC 2998
UO-31 = test system: UO-31
SK-MEL-2 = test system: SK-MEL-2
Hs-578T = test system: Hs-578T
SR = test system: SR
NCI/ADR-RES = test system: NCI/ADR-RES
MDA-N = test system: MDA-N

CCCCCCCCCC1CC(=O)OC23CCCC(=O)C12O3 (centres undefined)
GI50 (SF-268): > 100 µM (inactive)
GI50 (SF-295): > 100 µM (inactive)
GI50 (NCI-H522): 94.6 µM (inactive)
GI50 (NCI-H226): > 100 µM (inactive)
GI50 (DLD-1): 98.6 µM (inactive)
GI50 (SNB-75): > 100 µM (inactive)
GI50 (HCT-15): 84.9 µM
GI50 (RXF 393): > 100 µM (inactive)
GI50 (SNB-19): > 100 µM (inactive)
GI50 (TK-10): > 100 µM (inactive)
GI50 (COLO 205): > 100 µM (inactive)
GI50 (SK-MEL-5): 74.5 µM (inactive)
GI50 (MOLT-4): 26.7 µM (inactive)
GI50 (HCC 2998): 56.8 µM (inactive)
GI50 (UO-31): > 100 µM (inactive)
GI50 (SK-MEL-2): > 100 µM (inactive)

COc1ccc2c(c1)C1C(CO2)C(c2ccccc2)=NN1c1ccccc1 (centres undefined)
GI50 (SF-268): 89.3 µM (inactive)
GI50 (SF-295): > 100 µM (inactive)
GI50 (NCI-H522): > 100 µM (inactive)
GI50 (DLD-1): > 100 µM (inactive)
GI50 (SNB-75): 0.441 µM (active)
GI50 (RXF 393): 35.6 µM (inactive)
GI50 (TK-10): > 100 µM (inactive)
GI50 (COLO 205): > 100 µM (inactive)
GI50 (SK-MEL-5): > 100 µM (inactive)
GI50 (MOLT-4): 94.8 µM (inactive)
GI50 (HCC 2998): > 100 µM (inactive)
GI50 (UO-31): > 100 µM (inactive)
GI50 (SK-MEL-2): > 100 µM (inactive)

C=C1CC2(CCOc3ccc(Cl)cc32)OC1=O (centres undefined)
GI50 (SF-268): 6.22 µM (inactive)
GI50 (SF-295): 7.24 µM (inactive)
GI50 (Hs-578T): 0.979 µM (active)
GI50 (NCI-H522): 0.885 µM (active)
GI50 (NCI-H226): 2.81 µM (inactive)
GI50 (SR): 2.37 µM (inactive)
GI50 (SNB-75): 3.61 µM (inactive)
GI50 (HCT-15): 0.935 µM
GI50 (RXF 393): 2.23 µM (inactive)
GI50 (SNB-19): 13.1 µM (inactive)
GI50 (NCI/ADR-RES): 6.47 µM (inactive)
GI50 (TK-10): 5.77 µM (inactive)
GI50 (COLO 205): 1.64 µM (inactive)
GI50 (SK-MEL-5): 5.02 µM (inactive)
GI50 (MOLT-4): 0.805 µM (active)
GI50 (HCC 2998): 22.5 µM (inactive)
GI50 (MDA-N): 3.53 µM (inactive)
GI50 (UO-31): 2.83 µM (inactive)
GI50 (SK-MEL-2): 1.86 µM (inactive)

O=S(=O)(c1ccccc1)C1CN2OC1(S(=O)(=O)c1ccccc1)CC21CCCCC1 (centres undefined)
GI50 (SF-268): > 100 µM (inactive)
GI50 (SF-295): > 100 µM (inactive)
GI50 (NCI-H522): 51.5 µM (inactive)
GI50 (NCI-H226): > 100 µM (inactive)
GI50 (SR): 52.6 µM (inactive)
GI50 (DLD-1): > 100 µM (inactive)
GI50 (SNB-75): > 100 µM (inactive)
GI50 (HCT-15): > 100 µM
GI50 (RXF 393): 77.1 µM (inactive)
GI50 (SNB-19): > 100 µM (inactive)
GI50 (TK-10): > 100 µM (inactive)
GI50 (COLO 205): > 100 µM (inactive)
GI50 (MOLT-4): 40.7 µM (inactive)
GI50 (HCC 2998): > 100 µM (inactive)
GI50 (UO-31): 42.9 µM (inactive)
GI50 (SK-MEL-2): > 100 µM (inactive)

COc1ccc(/C=C/C(=O)c2sc(-n3nc(-c4ccccc4)cc3-c3ccccc3)nc2C)cc1OC
GI50 (SF-268): 27.4 µM (inactive)
GI50 (SF-295): 28.1 µM (inactive)
GI50 (NCI-H522): 19.5 µM (inactive)
GI50 (NCI-H226): 31.6 µM (inactive)
GI50 (SR): 24.9 µM (inactive)
GI50 (DLD-1): 21.8 µM (inactive)
GI50 (HCT-15): 32.4 µM
GI50 (RXF 393): 57.1 µM (inactive)
GI50 (SNB-19): 36.6 µM (inactive)
GI50 (TK-10): 62.5 µM (inactive)
GI50 (COLO 205): 36.6 µM (inactive)
GI50 (MOLT-4): 20.3 µM (inactive)
GI50 (HCC 2998): 51.1 µM (inactive)
GI50 (UO-31): 42 µM (inactive)
GI50 (SK-MEL-2): 62.1 µM (inactive)

c1ccc(CN(Cn2cccn2)Cn2cccn2)nc1
GI50 (SF-268): > 100 µM (inactive)
GI50 (SF-295): > 100 µM (inactive)
GI50 (NCI-H522): > 100 µM (inactive)
GI50 (SR): > 100 µM (inactive)
GI50 (DLD-1): 87.3 µM (inactive)
GI50 (SNB-75): > 100 µM (inactive)
GI50 (HCT-15): > 100 µM
GI50 (RXF 393): > 100 µM (inactive)
GI50 (SNB-19): > 100 µM (inactive)
GI50 (TK-10): > 100 µM (inactive)
GI50 (COLO 205): > 100 µM (inactive)
GI50 (SK-MEL-5): > 100 µM (inactive)
GI50 (MOLT-4): > 100 µM (inactive)
GI50 (UO-31): > 100 µM (inactive)
GI50 (SK-MEL-2): > 100 µM (inactive)

Nc1ccccc1C(=O)C(Br)C(Br)c1ccc2c(c1)OCO2 (centres undefined)
GI50 (SF-268): 26.4 µM (inactive)
GI50 (SF-295): 27.6 µM (inactive)
GI50 (NCI-H522): 18.5 µM (inactive)
GI50 (NCI-H226): 20 µM (inactive)
GI50 (SR): 46.1 µM (inactive)
GI50 (DLD-1): 33.6 µM (inactive)
GI50 (SNB-75): 20.9 µM (inactive)
GI50 (HCT-15): 20.8 µM
GI50 (RXF 393): 19.7 µM (inactive)
GI50 (SNB-19): 26.1 µM (inactive)
GI50 (TK-10): 27.4 µM (inactive)
GI50 (COLO 205): 14.2 µM (inactive)
GI50 (MOLT-4): 25.1 µM (inactive)
GI50 (HCC 2998): 20.3 µM (inactive)
GI50 (UO-31): 15.5 µM (inactive)
GI50 (SK-MEL-2): 16.9 µM (inactive)

O=C(Nc1cccc([N+](=O)[O-])c1)/C(=N\NC(=O)c1ccncc1)c1nc2ccc([N+](=O)[O-])cc2nc1O
GI50 (SF-268): 40.7 µM (inactive)
GI50 (SF-295): 33.8 µM (inactive)
GI50 (NCI-H522): 8.59 µM (inactive)
GI50 (NCI-H226): 42.4 µM (inactive)
GI50 (SR): 42.7 µM (inactive)
GI50 (DLD-1): > 10 µM (inactive)
GI50 (HCT-15): 35 µM
GI50 (RXF 393): 60 µM (inactive)
GI50 (SNB-19): > 100 µM (inactive)
GI50 (COLO 205): > 100 µM (inactive)
GI50 (SK-MEL-5): 38 µM (inactive)
GI50 (MOLT-4): 46.9 µM (inactive)
GI50 (HCC 2998): 35.4 µM (inactive)
GI50 (UO-31): 21.9 µM (inactive)
GI50 (SK-MEL-2): > 100 µM (inactive)

COC(=O)C1CC/C(=N/C2c3ccccc3-c3ccccc32)N1 (centres undefined)
GI50 (SF-268): > 100 µM (inactive)
GI50 (SF-295): > 100 µM (inactive)
GI50 (NCI-H522): 19.6 µM (inactive)
GI50 (NCI-H226): > 100 µM (inactive)
GI50 (DLD-1): > 100 µM (inactive)
GI50 (SNB-75): 58.6 µM (inactive)
GI50 (HCT-15): > 100 µM
GI50 (SNB-19): > 100 µM (inactive)
GI50 (TK-10): > 100 µM (inactive)
GI50 (COLO 205): 47.8 µM (inactive)
GI50 (MOLT-4): 24.2 µM (inactive)
GI50 (HCC 2998): 57.9 µM (inactive)
GI50 (UO-31): > 100 µM (inactive)
GI50 (SK-MEL-2): > 100 µM (inactive)
